Measurements: PubChem BioAssay AID248 (DTP/NCI, 2004)
Values joined by “and” are separate entries in the source; they are usually repeats but may differ in a detail not shown here. Equal entries are not always repeated. Toxic doses and inconclusive results are not listed. Cut-off read from the data, not from the text of the source: active = T/C of 150% or more; inactive = T/C below 125%.

Tested on: L1210 leukemia ip in BDF1 mice, survival T/C
Assay: NCI In Vivo Anticancer Drug Screen. Data for tumor model L1210 Leukemia (intraperitoneal) in B6D2F1 (BDF1) mice
Conditions: endpoint: mean survival time, higher = longer survival
Protocol: The antitumor activity of compounds was measured in mice bearing transplantable tumors. Survival or tumor size were measured and the results are expressed as the measurement made in the treated group (T) divided by the measurement made in the vehicle treated control group (C). The tumor model used in this assay is L1210 Leukemia (intraperitoneal) in B6D2F1 (BDF1) mice

[1] = dose: 100.0 mg/kg/injection, schedule: Q04DX002 (ip), vehicle: saline with Tween-80
[2] = dose: 200.0 mg/kg/injection, schedule: Q04DX002 (ip), vehicle: saline with Tween-80
[3] = dose: 100.0 mg/kg/injection, schedule: Q01DX009 (ip), vehicle: Klucel (hydroxypropylcellulose) (HPC)
[4] = dose: 200.0 mg/kg/injection, schedule: Q01DX009 (ip), vehicle: Klucel (hydroxypropylcellulose) (HPC)

Measured: T/C

Cc1c(Cl)cccc1NC(=S)NC(=O)/C=C/c1ccccc1
inactive: dose: 50.0 mg/kg/injection, schedule: Q04DX003 (ip), vehicle: saline with Tween-80 96 % of control | dose: 100.0 mg/kg/injection, schedule: Q01DX001 (ip), vehicle: saline with Tween-80 90 % of control | dose: 100.0 mg/kg/injection, schedule: Q01DX009 (ip), vehicle: saline with Tween-80 98 % of control and 92 % of control | [1] 96 % of control and 87 % of control | dose: 100.0 mg/kg/injection, schedule: Q04DX003 (ip), vehicle: saline with Tween-80 93 % of control and 102 % of control | dose: 200.0 mg/kg/injection, schedule: Q01DX009 (ip), vehicle: saline with Tween-80 95 % of control and 98 % of control | [2] 107 % of control and 116 % of control | dose: 200.0 mg/kg/injection, schedule: Q04DX003 (ip), vehicle: saline with Tween-80 101 % of control | dose: 400.0 mg/kg/injection, schedule: Q01DX001 (ip), vehicle: saline with Tween-80 93 % of control | dose: 400.0 mg/kg/injection, schedule: Q01DX009 (ip), vehicle: saline with Tween-80 95 % of control and 90 % of control | dose: 400.0 mg/kg/injection, schedule: Q04DX002 (ip), vehicle: saline with Tween-80 111 % of control and 112 % of control | dose: 400.0 mg/kg/injection, schedule: Q04DX003 (ip), vehicle: saline with Tween-80 102 % of control and 88 % of control

CC(O)CC(=O)NN (stereo not drawn)
inactive: dose: 100.0 mg/kg/injection, schedule: Q01DX001 (ip), vehicle: saline 98 % of control | dose: 200.0 mg/kg/injection, schedule: Q01DX001 (ip), vehicle: saline 100 % of control | dose: 400.0 mg/kg/injection, schedule: Q01DX001 (ip), vehicle: saline 93 % of control

CCc1nnnn1-c1ccc(Br)cc1
inactive: dose: 100.0 mg/kg/injection, schedule: Q01DX001 (ip), vehicle: Klucel (hydroxypropylcellulose) (HPC) 93 % of control | dose: 200.0 mg/kg/injection, schedule: Q01DX001 (ip), vehicle: Klucel (hydroxypropylcellulose) (HPC) 102 % of control | dose: 400.0 mg/kg/injection, schedule: Q01DX001 (ip), vehicle: Klucel (hydroxypropylcellulose) (HPC) 116 % of control

c1coc(-c2cnc3ccccc3n2)c1
inactive: dose: 75.0 mg/kg/injection, schedule: Q01DX001 (ip), vehicle: carboxymethylcellulose (CMC) 109 % of control | dose: 150.0 mg/kg/injection, schedule: Q01DX001 (ip), vehicle: carboxymethylcellulose (CMC) 91 % of control

NCC(=O)NC(Cc1c[nH]c2ccccc12)C(=O)O (stereo not drawn)
inactive: dose: 100.0 mg/kg/injection, schedule: Q01DX001 (ip), vehicle: acetone 97 % of control | dose: 200.0 mg/kg/injection, schedule: Q01DX001 (ip), vehicle: acetone 98 % of control | dose: 400.0 mg/kg/injection, schedule: Q01DX001 (ip), vehicle: acetone 92 % of control

CSc1ccc(NC(=O)Sc2ccccc2C)cc1
inactive: dose: 75.0 mg/kg/injection, schedule: Q01DX001 (ip), vehicle: Klucel (hydroxypropylcellulose) (HPC) 95 % of control | dose: 75.0 mg/kg/injection, schedule: Q01DX009 (ip), vehicle: Klucel (hydroxypropylcellulose) (HPC) 93 % of control and 95 % of control | dose: 75.0 mg/kg/injection, schedule: Q04DX003 (ip), vehicle: Klucel (hydroxypropylcellulose) (HPC) 103 % of control | [3] 95 % of control and 103 % of control | dose: 100.0 mg/kg/injection, schedule: Q04DX002 (ip), vehicle: Klucel (hydroxypropylcellulose) (HPC) 98 % of control and 105 % of control | dose: 150.0 mg/kg/injection, schedule: Q01DX001 (ip), vehicle: Klucel (hydroxypropylcellulose) (HPC) 94 % of control | dose: 150.0 mg/kg/injection, schedule: Q01DX009 (ip), vehicle: Klucel (hydroxypropylcellulose) (HPC) 101 % of control | dose: 150.0 mg/kg/injection, schedule: Q04DX003 (ip), vehicle: Klucel (hydroxypropylcellulose) (HPC) 87 % of control | [4] 109 % of control | dose: 200.0 mg/kg/injection, schedule: Q04DX002 (ip), vehicle: Klucel (hydroxypropylcellulose) (HPC) 97 % of control | dose: 300.0 mg/kg/injection, schedule: Q01DX001 (ip), vehicle: Klucel (hydroxypropylcellulose) (HPC) 96 % of control | dose: 300.0 mg/kg/injection, schedule: Q01DX009 (ip), vehicle: Klucel (hydroxypropylcellulose) (HPC) 86 % of control and 88 % of control | dose: 300.0 mg/kg/injection, schedule: Q04DX003 (ip), vehicle: Klucel (hydroxypropylcellulose) (HPC) 91 % of control | dose: 400.0 mg/kg/injection, schedule: Q04DX002 (ip), vehicle: Klucel (hydroxypropylcellulose) (HPC) 93 % of control and 94 % of control

CS(=O)(=O)Oc1ccccc1OS(C)(=O)=O
inactive: [1] 91 % of control | [2] 107 % of control

O=C(Nc1cccc(Br)c1)c1cc(Cl)cc(Cl)c1Br
inactive: dose: 87.5 mg/kg/injection, schedule: Q04DX003 (ip), vehicle: saline with Tween-80 105 % of control | dose: 175.0 mg/kg/injection, schedule: Q04DX003 (ip), vehicle: saline with Tween-80 97 % of control | dose: 350.0 mg/kg/injection, schedule: Q04DX003 (ip), vehicle: saline with Tween-80 97 % of control

Nc1ncnc(Nc2ccc([N+](=O)[O-])cc2)c1[N+](=O)[O-]
inactive: [3] 97 % of control | [4] 92 % of control | dose: 400.0 mg/kg/injection, schedule: Q01DX009 (ip), vehicle: Klucel (hydroxypropylcellulose) (HPC) 96 % of control

O=C(O)Cc1csc2ccccc12
inactive: dose: 100.0 mg/kg/injection, schedule: Q01DX001 (ip), vehicle: other 100 % of control | dose: 200.0 mg/kg/injection, schedule: Q01DX001 (ip), vehicle: other 97 % of control | dose: 400.0 mg/kg/injection, schedule: Q01DX001 (ip), vehicle: other 103 % of control
